This is an account of results in patent US10905691B2, “Use of triazolo(4,5-d)pyrimidine derivatives for prevention and treatment of bacterial infection” (Universite de Liege, priority 2016, dated 2021).

≈ marks a conversion by molar mass, not a printed value.

The subject of one experiment is S. aureus ATCC 6538. Put plainly: MBC and MDK99.9 determination (CFU counting). It counts as cell-based, Staphylococcus aureus. The protocol:
Further experiments were conducted using different strains of S. aureus, as clinically relevant Gram-positive bacterial strains: ATCC 25904, ATCC 6538, methilcillin-resistant S. aureus (MRSA) ATCC BAA-1556, Glycopeptide intermediate-resistant (GISA) S. aureus Mu-50 (ATCC 700695) in order to determine the Minimal Inhibitory Concentration (MIC) which is the minimal concentration required to prevent bacterial growth; the Minimal Bactericidal Concentration (MBC) which determines the lowest concentration at which an antimicrobial agent kill a particular microorganism and a Minimum Duration for killing 99.9% bacteria (MDK99.9) which is a tolerance metric according to the EUCAST.
MBC and MDK99.9 determination: A single colony selected from the different strains of S. aureus is resuspended and cultured in the appropriate medium (TSB, or BHI) overnight (O/N) in aerobic conditions (37° C. with 220 rpm shaking), next day a 1:100 inoculum in the appropriate medium was incubated in aerobic conditions for 2 h. The culture is then challenged with triafluocyl at MIC concentration or higher concentrations. Bacterial growth was measured after different time intervals by counting the colony-forming units after plating appropriate culture dilutions on BHI agar plates. […] And the real time needed is defined as the MDK99.9. […]

For experiment [1], the system named is S. epidermidis mature biofilm. In words: Mature biofilm (24-hour) treatment, viable count. In kind it is cell-based, Staphylococcus epidermidis. As to conditions: 50 μg/ml. The source says: In another experiment we let adhere 0.5×10^8 CFU/ml S. epidermidis cells for 4 hr and let the biofilm form for additional 24 hr in presence of 0.25% glucose, at this point we treated the biofilm with several concentrations of Triafluocyl for 24 hr in TSB with 0.25% glucose and determined the viable count (FIG. 7) as well as the percentage of live cells using the BacLight bacterial viability kit (Molecular Probes). For biofilm analysis, we first washed the biofilm to eliminate all planktonic bacteria and then the biofilm was detached mechanically using a scraper. To assure that the aggregates from the biofilm were completely dissociated, the suspension of cells was passed through a needle (0.5×16 mm) and a dilution was plated on TSA plates.

Experiment [2] concerns S. epidermidis mature biofilm. Put plainly: Mature biofilm (24-hour) treatment, LIVE/DEAD BacLight staining. The conditions noted are these: 24 hr treatment of 24-hour biofilm. It counts as cell-based, Staphylococcus epidermidis. The source says: In another experiment we let adhere 0.5×10^8 CFU/ml S. epidermidis cells for 4 hr and let the biofilm form for additional 24 hr in presence of 0.25% glucose, at this point we treated the biofilm with several concentrations of Triafluocyl for 24 hr in TSB with 0.25% glucose and determined the viable count (FIG. 7) as well as the percentage of live cells using the BacLight bacterial viability kit (Molecular Probes).
In the same experiment we also determined the percentage of live and dead bacteria. To do so we followed the procedure of the kit LIVE/DEAD from Molecular Probes. Briefly, the biofilm was resuspended in a solution of 0.9% NaCl and cells were stained with a mixture of SYTO9 (green fluorescence) and propidium iodide (PI) (red fluorescence) for 15 min in the dark. Stained cells were transferred in a 96-well plate and fluorescence was measured using the Enspire Spectrophotometer with excitation wavelength of 470 nm and emission spectra in the range of 490-700 nm. SYTO9 dye (green fluorescence 500-520 nm) penetrates all the cells (dead and live) and binds to DNA, while PI (red fluorescence in the range 610-630 nm) enters only in dead cells with a damaged cell membrane. When PI and SYTO9 are in the same cell the green fluorescence intensity decreases. […]

By MBC is commonly meant the lowest tested concentration that kills the bacteria rather than only halting them. A higher MBC goes with less potent killing. As to `CCCSc1nc(N[C@@H]2C[C@H]2c2ccc(F)c(F)c2)c2nnn([C@@H]3C[C@H](OCCO)[C@@H](O)[C@H]3O)c2n1` [Triafluocyl, (1S,2S,3R,5S)-3-[7-[(1R,2S)-2-(3,4-difluorophenyl)cyclopropylamino]-5-(propylthio)-3H-[1,2,3]-triazolo[4,5-d]pyrimidin-3-yl]-5-(2-hydroxyethoxy)-1,2-cyclopentanediol], in the experiment with S. aureus ATCC 6538, the “MDK 99.9 Time (h) needed to kill 99.9% of the started inoculum” value was found to be 6 h. The MBC in the experiment with S. aureus ATCC 6538 (Staphylococcus aureus, ATCC6538, cut-off 99.9% reduction in CFU) was determined as 20 µg/mL (≈ 38.3 µM). Moreover, in experiment [1] (24 hr treatment of 24-hour biofilm, 0.25% glucose), the “number of viable cells in the biofilm” value is 1.5×10^5 CFU/ml. In addition, in experiment [1] (24 hr treatment, versus control), the “reduction of viable cells in the biofilm” value is on record as approximately 3 log. Besides, the “percentage of live bacteria in the biofilm” value in experiment [2] (20 μg/ml) is reported as 80%; in experiment [2] (50 μg/ml) it was 30%.
